# Source: paper PMC9794587 (Frontiers in Pharmacology, 2022)
# Like-named read-outs stand apart in the source and are kept apart here. Where no end group is shown, it is not given here.
# Key:
# [1] = rat feces collected from 0 to 72 h after administration; conditions: SD rats, up to 72 h
# [2] = rat urine collected from 0 to 8 h and from 8 to 72 h after administration; conditions: SD rats, up to 72 h
# gastric juice = conditions: cited from earlier work
# [3] = rat plasma collected after a single IM injection of [3H]BPC157; conditions: SD rats, up to 24 h
# [4] = rat bile collected from 0 to 72 h after administration (BDC rats); conditions: SD rats, up to 72 h
# in vivo [5] = conditions: both, beagle, dog, t1/2
# [6] = can be stored at room temperature; ref Sikiric et al., 2018; cited from earlier work
# Excerpt: Body-protective compound (BPC) 157 is a peptide isolated from human gastric juice ([Sikiric et al., 1993]). BPC157 comprises 15 amino acids ([…]) and has a molecular weight of 1419 Da. […] BPC157 exerts a significant protective effect on various tissues and organs, such as th ...
# [7] = Pharmacokinetics of BPC157 in SD rats after intravenous and intramuscular administration (plasma, LC-MS/MS); conditions: for bioavailability: in vivo
# [8] = rat, in vivo, im, t1/2
# [9] = mice, rats, rabbits, or dogs; ref Xu et al., 2020; cited from earlier work
# Excerpt: Previously, we established a solid-phase synthesis process for BPC157 ([Xue et al., 2004]) and verified its biological activity in rat gastric ulcer models and various skin wound models ([Huang et al., 2015]). […] For evaluating its future clinical use as a therapeutic drug and follow-up clinical trials, the present study was undertaken to evaluate the pharmacokinetics, tissue distribution, metabolis ...
# [10] = Pharmacokinetics of BPC157 in beagle dogs after intravenous and intramuscular administration (plasma)
# in vivo [11] = conditions: both, Sprague-Dawley, rat, iv, t1/2
# [12] = dog, in vivo, im, t1/2
# [13] = Radiometabolite profiling of [3H]BPC157 in rat plasma, urine, bile and feces (HPLC with radioactive detector, LC-MS/MS); type: in vivo, SD rats; conditions: for proportion of the bile sample radioactivity: single IM 100 µg/300 μCi/kg [3H]BPC157, mixed bile samples 0 to 72 h; for proportion of the total fecal radioactivity: single IM 100 µg/300 μCi/kg [3H]BPC157, feces 0 to 72 h; for proportion of the total radioactivity in urine: single IM 100 µg/300 μCi/kg [3H]BPC157, mixed urine samples 8 to 72 h
# Description: Thirty intact SD rats, six JVC rats, and six BDC rats (half male and half female subjects) were injected intramuscularly with 100 µg/300 μCi/kg of [3H]BPC157. Whole blood and plasma samples of six JVC rats were collected at 0.05, 0.167, 0.5, 1, 2, 4, 8, 24, 48, and 72 h after administration (three males and three females at each time point) for the examination of radio pharmacokinetics of total plasma. Six intact SD rats were used for urinary, fecal, and biliary excretion studies. Urine and fecal samples were collected from each rat at 0–8, 8–24, 24–48, and 48–72 h. Animal carcasses were collected 72 h after administration. Bile excretion was studied in six SD rats with BDC. Bile, urine, and feces were collected 0–72 h after administration. Tissue distribution of BPC was studied in 24 intact SD rats. The rats were euthanized, and tissue samples (brain, heart, kidneys, liver, spleen, lung, stomach, intestine, muscle, grease, ovaries, womb, testicles, and thymus) were collected at 3 min, 10 min, 1 h, and 24 h after administration (three males and three females at each time point). Male SD rats were administered a single IM injection of blank solvent (excipient), and biological samples, including whole blood, plasma, urine, feces, and tissues, were collected for background control. The radioactivity of the plasma, tissue, bile, urinary, and fecal samples was analyzed using a liquid scintillation counter.
# Plasma, bile, urine, and fecal samples of intact SD rats or BDC rats after a single administration of [3H]BPC157 were analyzed by HPLC combined with a low-energy radionuclide detection technique to obtain the radiometabolite profiles of [3H]BPC157. The structures of the main metabolites of [3H]BPC157 in rat plasma, bile, urine, and feces were analyzed and identified using LC-MS/MS and standard molecular weight comparison.
# [14] = SD rats, single intravenous 20 μg/kg, plasma, LC-MS/MS, mean, n = 6
# [15] = both, Sprague-Dawley, rat, plasma, im, 20 μg/kg
# [16] = both, Sprague-Dawley, rat, plasma, im, 100 μg/kg
# [17] = both, Sprague-Dawley, rat, plasma, im, 500 μg/kg
# [18] = both, Sprague-Dawley, rat, plasma, iv, 20 μg/kg
# [19] = both, beagle, dog, plasma, im, 6 μg/kg
# [20] = both, beagle, dog, plasma, im, 30 μg/kg
# [21] = both, beagle, dog, plasma, im, 150 μg/kg
# [22] = both, beagle, dog, plasma, iv, 6 μg/kg
compound,measurement,setting,value
GEPPPPGKPADDAGLV,fragment found,[1],[^3H]proline (M1)
same,fragment found,[2],"[^3H]proline (M1), major, 0 to 8 h"
same,not cleaved,gastric juice,"resistant to hydrolysis, enzyme digestion, and even gastric juice"
same,fragment found,[3],M1(Proline) and M2 and M3 and M4 and M5 and M6
same,fragment found,[4],"[^3H]proline (M1), major"
"CC(C)C[C@H](NC(=O)CNC(=O)[C@H](C)NC(=O)[C@H](CC(=O)O)NC(=O)[C@H](CC(=O)O)NC(=O)[C@H](C)NC(=O)[C@@H]1CCCN1C(=O)[C@H](CCCCN)NC(=O)CNC(=O)[C@@H]1CCCN1C(=O)[C@@H]1CCCN1C(=O)[C@@H]1CCCN1C(=O)[C@H](CCC(=O)O)NC(=O)CN)C(=O)N[C@H](C(=O)O)C(C)C [BPC157, Gly-Glu-Pro-Pro-Pro-Pro-Gly-Lys-Pro-Ala-Asp-Asp-Ala-Gly-Leu-Val]",half-life,in vivo [5]; im,20 ± 5.53 min
same,half-life,in vivo [5]; iv,5.27 ± 2.25 min
same,stability,[6],"resistant to hydrolysis, enzyme digestion, and even gastric juice"
same,Cssav,"[7]; SD rats, repeat intramuscular 100 μg/kg for seven consecutive days, Cssav = AUC0–t/τ, τ is the interval of administration",0.290 ng/mL
same,Cssmin,"[7]; SD rats, repeat intramuscular 100 μg/kg for seven consecutive days, Cssmin=(C-48h + C-24h + C0h)/3",0 ng/mL
same,Tmax,"[7]; SD rats, repeat intramuscular 100 μg/kg once a day for seven consecutive days, after last dose, plasma, LC-MS/MS, mean, n = 6",3.00 min
same,Tmax,"[7]; SD rats, single intramuscular 20 μg/kg, plasma, LC-MS/MS, mean, n = 6",3 min
same,Tmax,"[7]; SD rats, single intramuscular 100 μg/kg, plasma, LC-MS/MS, mean, n = 6",3 min
same,Tmax,"[7]; SD rats, single intramuscular 500 μg/kg, plasma, LC-MS/MS, mean, n = 6",3 min
same,MRT,[7]; [14],0.727 min
same,Vss,[7]; [14],0.0364 L/kg
same,AUC(0-inf),[7]; [15],1.25 ng·h/mL
same,AUC(0-t),[7]; [15],1.25 ng·h/mL
same,Cmax,[7]; [15],12.3 ng/mL
same,MRT,[7]; [15],7.27 min
same,Tmax,[7]; [15],3 min
same,AUC(0-inf),[7]; [16],4.83 ng·h/mL
same,AUC(0-t),[7]; [16],4.82 ng·h/mL
same,Cmax,[7]; [16],48.9 ng/mL
same,MRT,[7]; [16],9.61 min
same,Tmax,[7]; [16],3 min
same,AUC(0-inf),[7]; [17],32.2 ng·h/mL
same,AUC(0-t),[7]; [17],32.2 ng·h/mL
same,Cmax,[7]; [17],141 ng/mL
same,MRT,[7]; [17],12.8 min
same,Tmax,[7]; [17],3 min
same,AUC(0-inf),[7]; [18],6.67 ng·h/mL
same,AUC(0-t),[7]; [18],6.65 ng·h/mL
same,clearance,[7]; [18],50.1 mL/min/kg
same,bioavailability,"[7]; rat, im, 20 ug/kg",18.8%
same,bioavailability,"[7]; rat, im, 100 ug/kg",14.5%
same,bioavailability,"[7]; rat, im, 500 ug/kg",19.4%
same,dose proportionality (AUC0–t and Cmax vs dose),"[7]; rats, IM 20, 100, 500 μg/kg, linear regression",linear pharmacokinetic characteristics
same,time for plasma BPC157 to reach its peak,"[7]; rats, IM 20, 100, and 500 μg/kg",≤ 9 min
same,elimination half-life of the prototype drug,"[7]; rats, IV and IM, all doses, plasma",less than 30 min
same,detection of prototype drug in plasma 4 h after administration,"[7]; rats, plasma, 4 h after administration",could not be detected
same,half-life,[8],18.5 min
same,"tolerability, serious toxic effects",[9],well tolerated and did not demonstrate any serious toxic effects
same,dose proportionality (AUC0–t and Cmax vs dose),"[10]; beagle dogs, IM 6, 30, 150 μg/kg, linear regression",linear pharmacokinetic characteristics
same,elimination half-life of the prototype drug,"[10]; beagle dogs, IV and IM, all doses, plasma",less than 30 min
same,detection of prototype drug in plasma 4 h after administration,"[10]; beagle dogs, plasma, 4 h after administration",could not be detected
same,Cssav,"[10]; beagle dogs, repeated intramuscular 30 μg/kg for seven consecutive days, Cssav = AUC0–t/τ, mean ± SD, n = 6",0.108 ± 0.0177 ng/mL
same,Cssmin,"[10]; beagle dogs, repeated intramuscular 30 μg/kg for seven consecutive days, Cssmin = (C-48h + C-24h + C0h)/3, mean ± SD, n = 6",0.00285 ± 0.00698 ng/mL
same,time for plasma BPC157 to reach its peak,"[10]; beagles, IM 6, 30, and 150 μg/kg",≤ 9 min
same,AUC(0-inf),[10]; [19],0.5 ng·h/mL
same,AUC(0-t),[10]; [19],0.483 ng·h/mL
same,Cmax,[10]; [19],1.05 ± 0.429 ng/mL
same,MRT,[10]; [19],25.8 min
same,Tmax,[10]; [19],6.33 min
same,bioavailability,[10]; [19],45.3 ± 24.9%
same,AUC(0-inf),[10]; [20],2.73 ng·h/mL
same,AUC(0-t),[10]; [20],2.67 ng·h/mL
same,Cmax,[10]; [20],3.3 ± 0.508 ng/mL
same,MRT,[10]; [20],37 min
same,Tmax,[10]; [20],8.67 min
same,bioavailability,[10]; [20],47.6 ± 18.1%
same,AUC(0-inf),[10]; [21],13.8 ng·h/mL
same,AUC(0-t),[10]; [21],13.8 ng·h/mL
same,Cmax,[10]; [21],26.1 ± 7.82 ng/mL
same,MRT,[10]; [21],31.4 min
same,Tmax,[10]; [21],8.17 min
same,bioavailability,[10]; [21],50.6 ± 27%
same,AUC(0-inf),[10]; [22],1.28 ng·h/mL
same,MRT,[10]; [22],2.49 min
same,clearance,[10]; [22],90.8 ± 40.1 mL/min/kg
same,Tmax,"[10]; dog, in vivo, im",10.5 min
same,Vd,"[10]; dog, in vivo, iv, 6 ug/kg",0.243 ± 0.162 L/kg
same,half-life,in vivo [11],15.2 min
same,half-life,[12],19.6 ± 3.72 min
[3H]O[3H] [tritium water],proportion of the bile sample radioactivity,[13]; female BDC rats,91.2%
same,proportion of the total fecal radioactivity,[13]; female rats,30.1%
same,proportion of the total radioactivity in urine,[13]; female rats,69.5%
same,proportion of the bile sample radioactivity,[13]; male BDC rats,91.0%
same,proportion of the total fecal radioactivity,[13]; male rats,29.3%
same,proportion of the total radioactivity in urine,[13]; male rats,75.3%
